According to patent publication US20080221167A1, “Selective Insecticides Based on Haloalkylnicotinic Acid Derivatives, Anthranilic Acid Diamides, or Phthalic Acid Diamides and Safeners” (priority 2004, published 2008):

Experiments:
Type in all cases: in vivo
Heliothis armigera = Heliothis armigera test, spray treatment dripping wet (cotton plants); details: alone; for Kill in % after 7d: Table A1; for Kill in % after 3d: Table A2
Method: (§1) To produce a suitable solution, 1 part by weight of formulation is mixed with the stated amount of water and adjuvant and the concentrate is diluted with water to the desired concentration.
Cotton plants (Gossypium hirsutum) are sprayed to runoff point with the desired use concentration and populated with caterpillars of the cotton bollworm (Heliothis armigera) while the leaves are still moist.
(§2) After the desired period of time, the kill in % is determined. 100% means that all larvae have been killed; 0% means that none of the larvae have been killed. The determined kill rates are entered into Colby's formula (see above).

Spodoptera frugiperda = Spodoptera frugiperda test, spray treatment dripping wet (corn plants); details: Table C2; 100 ppm; alone
Method: as §1
Spodoptera frugiperda Test
Corn plants (Zea mais) are sprayed to runoff point with the desired use concentration and populated with caterpillars of the armyworm (Spodoptera frugiperda) while the leaves are still moist.
as §2

Plutella xylostella = Plutella xylostella test, spray treatment dripping wet (cabbage plants); details: alone; for Kill in % after 7d: Table B1
Method: as §1
Cabbage plants (Brassica pekinesis) are sprayed to runoff point with the desired use concentration and populated with larvae of the diamondback moth (Plutella xylostella) while the leaves are still moist.
as §2

Aphis gossypii = Aphis gossypii test, spray application dripping wet (cotton plants); details: alone
Method: (§3) Solvent: water Adjuvant: rapeseed oil methyl ester
(§4) To produce a suitable application solution, 1 part by weight of the formulation is mixed with the appropriate amount of water and the adjuvant and the concentrate is diluted with water to the desired concentration.
Cotton plants (Gossypium herbaceum) which are heavily infested by the cotton aphid (Aphis gossypii) are sprayed to runoff point with the desired concentration of the application solution.
(§5) After the desired period of time, the kill in % is determined. 100% means that all aphids have been killed; 0% means that none of the aphids have been killed. The determined kill rates are entered into Colby's formula (see sheet 1).

Metopolophium dirhodum = Metopolophium dirhodum test, spray application dripping wet (barley plants); details: 100 ppm, alone
Method: as §3, §4
Metopolophium dirhodum Test
Barley plants (Hordeum vulgare) which are heavily infested by a cereal aphid (Metopolophium dirhodum) are sprayed to runoff point with the desired concentration of the application solution.
as §5

Myzus persicae = Myzus persicae test, spray application dripping wet (bell pepper plants); details: alone; for Kill in % after 3d: Table F1; for Kill in % after 7d: Table F2
Method: as §3, §4
Bell pepper plants (Capsicum sativum) which are heavily infested by the green peach aphid (Myzus persicae) are sprayed to runoff point with the desired concentration of the application solution.
as §5

C=CCN(CC=C)C(=O)C(Cl)Cl [dichlormid, 2,2-dichloro-N,N-di-2-propenylacetamide]
0%: Kill in % after 7d (Heliothis armigera; 100 ppm) | Kill in % after 3d (Heliothis armigera; 100 ppm) | Kill in % after 3d (Spodoptera frugiperda) | Kill in % after 3d (Plutella xylostella; Table B2, 100 ppm) | Kill in % after 7d (Aphis gossypii; Table D1, 100 ppm) | Kill in % after 7d (Aphis gossypii; Table D2, 50 ppm) | Kill in % after 7d (Metopolophium dirhodum; Table E1) | Kill in % after 7d (Metopolophium dirhodum; Table E2) | Kill in % after 3d (Myzus persicae; 25 ppm) | Kill in % after 7d (Myzus persicae; 100 ppm)

Clc1cc(Cl)nc(-c2ccccc2)n1 [fenclorim, 4,6-dichloro-2-phenylpyrimidine]
0%: Kill in % after 3d (Heliothis armigera; 100 ppm) | Kill in % after 3d (Spodoptera frugiperda) | Kill in % after 7d (Plutella xylostella; 25 ppm) | Kill in % after 7d (Aphis gossypii; Table D1, 100 ppm) | Kill in % after 7d (Aphis gossypii; Table D2, 100 ppm) | Kill in % after 7d (Metopolophium dirhodum; Table E1) | Kill in % after 7d (Metopolophium dirhodum; Table E2) | Kill in % after 3d (Myzus persicae; 25 ppm) | Kill in % after 7d (Myzus persicae; 100 ppm)

CC1(C)OC(c2ccco2)CN1C(=O)C(Cl)Cl (stereo not shown) [furilazole, 3-dichloroacetyl-5-(2-furanyl)-2,2-dimethyloxazolidine]
0%: Kill in % after 7d (Heliothis armigera; 25 ppm) | Kill in % after 3d (Heliothis armigera; 50 ppm) | Kill in % after 3d (Spodoptera frugiperda) | Kill in % after 7d (Plutella xylostella; 50 ppm) | Kill in % after 7d (Aphis gossypii; Table D1, 100 ppm) | Kill in % after 7d (Aphis gossypii; Table D2, 100 ppm) | Kill in % after 7d (Metopolophium dirhodum; Table E1) | Kill in % after 7d (Metopolophium dirhodum; Table E2) | Kill in % after 3d (Myzus persicae; 100 ppm)
